The structures appear in SMILES notation. Where only a bound is given, the exact number is not on record here.

The assay addresses T1, Gag-Pol polyprotein [588-1027]/[588-1147] (Human immunodeficiency virus 1, UniProt P04585).
T1 construct: 588-1027; 588-1147
Kind of assay: HIV-1 RT Assay. As to conditions: pH 7.9.
In the case of `COC(=O)c1cc(C(=CC(=O)O)c2cc(Cl)c(OC)c(C(=O)OC)c2)cc(Cl)c1OC` [3,3-Dichloro-4,4-dimethoxy-5,5-bis(methoxycarbonyl)-3,3-diphenylpropenoic Acid], the IC50 (in general, the point on the concentration scale where inhibition reaches its midpoint) was over 100 µM.

`CC1(C)OC(=O)c2cc(C(=CCCBr)c3cc(Cl)c4c(c3)C(=O)OC(C)(C)O4)cc(Cl)c2O1` [6-[4-bromo-1-(8-chloro-2,2-dimethyl-4-oxo-2,4-dihydro-1,3-benzodioxin-6-yl)but-1-en-1-yl]-8-chloro-2,2-dimethyl-2,4-dihydro-1,3-benzodioxin-4-one] showed an IC50 of over 100 µM. The value for `COC(=O)c1cc(C(=CC(=O)OC(C)(C)C)c2cc(Cl)c(OC)c(C(=O)OC)c2)cc(Cl)c1OC` [methyl 5-[3-(tert-butoxy)-1-[3-chloro-4-methoxy-5-(methoxycarbonyl)phenyl]-3-oxoprop-1-en-1-yl]-3-chloro-2-methoxybenzoate] was over 100 µM; that for `COC(=O)c1cc(C(=CCCCC(=O)O)c2cc(Cl)c(OC)c(C(=O)OC)c2)cc(Cl)c1OC` [Alkenyldiarylmethane (ADAM) 25] was over 100 µM; that for `C=C(c1cc(Br)c(OC)c(C(=O)OC)c1)c1cc(Br)c(OC)c(C(=O)OC)c1` [methyl 3-bromo-5-{1-[3-bromo-4-methoxy-5-(methoxycarbonyl)phenyl]ethenyl}-2-methoxybenzoate] was over 100 µM. Consider `COc1c(Cl)cc(C(=CCCCC(=O)O)c2cc(Cl)c(OC)c(C(=O)O)c2)cc1C(=O)O` [Alkenyldiarylmethane (ADAM) 26], for which the IC50 is over 100 µM. Take `COC=C(c1cc(Br)c(OC)c(C(=O)OC)c1)c1cc(Br)c(OC)c(C(=O)OC)c1` [Alkenyldiarylmethane (ADAM) 5]: the half-inhibitory concentration (IC50) was over 100 µM. Consider `COc1c(Cl)cc(C(=CCC(=O)O)c2cc(Cl)c(OC)c(C(=O)O)c2)cc1C(=O)O` [Alkenyldiarylmethane (ADAM) 27], for which the IC50 is over 100 µM. Next, `CC1(C)OC(=O)c2cc(C(=CCCO)c3cc(Cl)c4c(c3)C(=O)OC(C)(C)O4)cc(Cl)c2O1` [8-chloro-6-[1-(8-chloro-2,2-dimethyl-4-oxo-2,4-dihydro-1,3-benzodioxin-6-yl)-4-hydroxybut-1-en-1-yl]-2,2-dimethyl-2,4-dihydro-1,3-benzodioxin-4-one]: over 100 µM. `COC(=O)c1cc(C(=CCCO)c2cc(Cl)c(OC)c(C(=O)OC)c2)cc(Cl)c1OC` [methyl 3-chloro-5-{1-[3-chloro-4-methoxy-5-(methoxycarbonyl)phenyl]-4-hydroxybut-1-en-1-yl}-2-methoxybenzoate] displayed an IC50 of over 100 µM.

For the origin of these results see BindingDB's records for doi:10.1021/jm9800595 (Purdue University, 1998).
